The record followed here is patent publication EP4737449A1 (Changchun Genescience Pharmaceutical Co., Ltd., priority 2023, dated 2025).

SMILES strings stand for the structures.

The target in this test is T1, p53-Y220C mutant protein (Homo sapiens, UniProt P04637, Y220C).
T1 construct: The recombinant Y220C p53 DBD protein with his-tag
As to the kind of experiment: In vitro DNA binding activity assay (TR-FRET). Type of test: biochemical. The settings on record: concentration required to increase the binding activity of protein to DNA by 50%. The method, then: The activity of the compound to modulate the binding of the p53-Y220C mutant protein to DNA was detected using TR-FREt (Time-Resolved Fluorescence Resonance Energy Transfer). The recombinant Y220C p53 DBD protein with his-tag and the DNA sequence with biotin label were prepared firstly. Donor Eu(Europium)-SA(Streptavidin) can be bound to the DNA sequence through biotin, receptor for his antibody attached to alphaphycocyanin(APC, allophycocyanin), and his antibody can be bound to the Y220C p53 DBD protein with his-tag. When exposed to an excitation light with a wavelength of 340 nm, the donor Eu(Europium)-SA(Streptavidin) can emit fluorescence with a wavelength of 615 nm. If the donor and the receptor are close to each other, the donor will transfer part of the energy to the receptor and produce fluorescence with a wavelength of 665 nm. […] If there is no interaction, only 615 nm fluorescence is produced. • 1) Experimental steps • a. Adding 4 µL of dilute compound solution to each well of a 384-well microplate; • a. Adding 4 µL of 4X P53 working solution to each well of the 384-well microplate; • c. Sealing the 384-well microplate and equilibrating the system at room temperature for 60 min; • d. Adding 4 µl of biotin DNA solution to the 384-well microplate; • e. Adding 4 µl of 4X test solution (MAb Anti-6His-Eu and streptavidin-d2) to each well of the 384-well microplate; • f. Incubating overnight in the dark; and • g. Reading data of 665 nm and 615 nm wavelengths on the BMG multifunctional microplate reader. • 2) Data analysis • a. Calculating the ratio for each well (Ratio665 nm/615 nm-Ratiobackground); • b. Calculating the activity percentage (%activity) as follows: C = (Ave_Ac−Ave_Ba)/(Ave_Dc−Ave_Bd) [formula] R data = (A−Ave_Ba−CD)/(D−Ave_Bd)*(Ave_Dc−Ave_Bd) [formula] % Activity = R data/Ave_VC*100 [formula] • A: Fluorescence intensity of the sample at 665 nm; D: Fluorescence intensity of the sample at 615 nm; • Ba: Background fluorescence intensity of the culture plate at 665 nm; Bd: Background fluorescence intensity of the culture plate at 615 nm; • Dc: Background fluorescence intensity of HIS-E at 615 nm; Ac: Background fluorescence intensity of streptavidin-d2 at 665 nm); and • c. Calculating SC150 and plotting dose-effect curve
Compared to the absence of the compound of the present invention, the activation percentage of binding of the p53 mutant protein to DNA in the presence of the compound of the present invention is expressed as SC150, which indicates the concentration of the compound required to increase the DNA binding activity of the p53 mutant protein by 50%. The SC150 is calculated using Prism™.

Regarding `COc1ccc(C(=O)NCC#Cc2nn3c(N[C@@H]4CCN(C)C[C@@H]4F)cccc3c2CC(F)(F)F)cn1` [Compound 266, N-(3-(7-{[(3S,4R)-3-fluoro-1-methylpiperidin-4-yl]amino}-3-(2,2,2-trifluoroethyl)pyrazolo[1,5-a]pyridin-2-yl)prop-2-yn-1-yl)-6-methoxynicotinamide], the SC150 is 46 nM.

Compound `CN1CC[C@@H](Nc2cccc3c(CC(F)(F)F)c(C#CCNC(=O)c4cn(C(C)(C)C)nc4O)nn23)[C@@H](F)C1` [Compound 356, 1-(tert-butyl)-N-[3-(7-{[(3S,4R)-3-fluoro-1-methylpiperidin-4-yl]amino}-3-(2,2,2-trifluoroethyl)pyrazolo[1,5-a]pyridin-2-yl)prop-2-yn-1-yl]-3-hydroxy-1H-pyrazole-4-carboxamide] gave an SC150 of 87 nM.

For the compound `Cc1ccc(C(=O)NCC#Cc2nn3c(N[C@@H]4CCN(C)C[C@@H]4F)cccc3c2CC(F)(F)F)cc1` [Compound 160, N-[3-(7-{[(3S,4R)-3-fluoro-1-methylpiperidin-4-yl]amino}-3-(2,2,2-trifluoroethyl)pyrazolo[1,5-a]pyridin-2-yl)prop-2-yn-1-yl]-4-methylbenzamide], the SC150 worked out at 84 nM.

With `CC(C)c1c(C#CCNC(=O)c2cnn(C(C)(C)C)c2N)nn2c(N[C@@H]3CCN(C)C[C@@H]3F)cccc12` [Compound 362, 5-amino-1-tert-butyl-N-(3-(7-{[(3S,4R)-3-fluoro-1-methylpiperidin-4-yl]amino}-3-(prop-2-yl)pyrazolo[1,5-a]pyridin-2-yl)prop-2-yn-1-yl)-1H-pyrazole-4-carboxamide], the SC150 came to 98 nM.

As to `CN1CC[C@@H](Nc2cccc3c(CC(F)(F)F)c(C#CCNC(=O)c4cnn(C5(O)CC5)c4)nn23)[C@@H](F)C1` [Compound 303, N-[3-(7-{[(3S,4R)-3-fluoro-1-methylpiperidin-4-yl]amino}-3-(2,2,2-trifluoroethyl)pyrazolo[1,5-a]pyridin-2-yl)prop-2-yn-1-yl]-1-(1-hydroxycyclopropyl)-1H-pyrazole-4-carboxamide], the SC150 came to 14 nM.

On to `CCn1cc(C(=O)NCC#Cc2nn3c(N[C@@H]4CCN(C)C[C@@H]4F)cccc3c2CC(F)(F)F)c(N)n1` [Compound 329, 3-amino-1-ethyl-N-(3-(7-{[(3S,4R)-3-fluoro-1-methylpiperidin-4-yl]amino}-3-(2,2,2-trifluoroethyl)pyrazolo[1,5-a]pyridin-2-yl)prop-2-yn-1-yl]-1H-pyrazole-4-carboxamide], for which the SC150 is 9 nM.

As for `CCc1cc(C(=O)NCC#Cc2nn3c(N[C@@H]4CCN(C)C[C@@H]4F)cccc3c2CC(F)(F)F)cs1` [Compound 336, 5-ethyl-N-[3-(7-{[(3S,4R)-3-fluoro-1-methylpiperidin-4-yl]amino}-3-(2,2,2-trifluoroethyl)pyrazolo[1,5-a]pyridin-2-yl)prop-2-yn-1-yl]thiophene-3-carboxamide], the SC150 came to 68 nM.

Compound `CN1CCCC(Nc2cccc3c(CC(F)(F)F)c(C#CCNC(=O)c4cnn(C(C)(C)C)c4N)nn23)CC1` (single isomer, unassigned) [Compound 369-A, 5-amino-1-tert-butyl-N-(3-(7-[(1-methylazepan-4-yl)amino]-3-(2,2,2-trifluoroethyl)pyrazolo[1,5-a]pyridin-2-yl)prop-2-yn-1-yl)-1H-pyrazole-4-carboxamide] displayed an SC150 of 8 nM.

The compound `CN1CC[C@@H](Nc2cccc3c(CC(F)(F)F)c(C#CCNC(=O)c4cnn(C5COC5)c4)nn23)[C@@H](F)C1` [Compound 009, N-[3-(7-{[(3S,4R)-3-fluoro-1-methylpiperidin-4-yl]amino}-3-(2,2,2-trifluoroethyl)pyrazolo[1,5-a]pyridin-2-yl)prop-2-yn-1-yl]-1-(oxetan-3-yl)-1H-pyrazole-4-carboxamide] returned an SC150 of 7 nM.

In the case of `CN1CC[C@@H](Nc2cccc3c(CC(F)(F)F)c(C#CCNC(=O)c4ccc(=O)n(C)c4)nn23)[C@@H](F)C1` [Compound 265, N-[3-(7-{[(3S,4R)-3-fluoro-1-methylpiperidin-4-yl]amino}-3-(2,2,2-trifluoroethyl)pyrazolo[1,5-a]pyridin-2-yl)prop-2-yn-1-yl]-1-methyl-6-oxo-1,6-dihydropyridine-3-carboxamide], the SC150 is on record as 40 nM.

The compound `CN1CC[C@@H](Nc2cccc3c(CC(F)(F)F)c(C#CCNC(=O)c4cnn(C5(F)CC5)c4)nn23)[C@@H](F)C1` [Compound 304] showed an SC150 of 13 nM.

`Cc1ccc(C(=O)NCC#Cc2nn3c(N[C@@H]4CCN(C)C[C@@H]4F)cccc3c2CC(F)(F)F)c(N)n1` [Compound 295, 2-amino-N-[3-(7-{[(3S,4R)-3-fluoro-1-methylpiperidin-4-yl]amino}-3-(2,2,2-trifluoroethyl)pyrazolo[1,5-a]pyridin-2-yl)prop-2-yn-1-yl]-6-methylnicotinamide] gave an SC150 of 45 nM.

Compound `CC(C1CC1)n1cc(C(=O)NCC#Cc2nn3c(N[C@@H]4CCN(C)C[C@@H]4F)cccc3c2CC(F)(F)F)cn1` (stereo partly drawn) [Compound 269, 1-(1-cyclopropylethyl)-N-[3-(7-{[(3S,4R)-3-fluoro-1-methylpiperidin-4-yl]amino}-3-(2,2,2-trifluoroethyl)pyrazolo[1,5-a]pyridin-2-yl)prop-2-yn-1-yl]-1H-pyrazole-4-carboxamide] displayed an SC150 of 8 nM.

`CCn1ncc(C(=O)NCC#Cc2nn3c(N[C@@H]4CCN(C)C[C@@H]4F)cccc3c2CC(F)(F)F)c1Cl` [Compound 343] gave an SC150 of 25 nM.

For the compound `CN1CCC(Nc2cccc3c(CC(F)(F)F)c(C#CCNC(=O)c4cnn(C(C)(C)C)c4N)nn23)C1` (centres unmarked) [Compound 366, 5-amino-1-tert-butyl-N-(3-(7-[(1-methylpyrrolidin-3-yl)amino]-3-(2,2,2-trifluoroethyl)pyrazolo[1,5-a]pyridin-2-yl)prop-2-yn-1-yl)-1H-pyrazole-4-carboxamide], the SC150 is recorded as 30 nM.

The compound `CN1CC[C@@H](Nc2cccc3c(CC(F)(F)F)c(C#CCNC(=O)c4cnn(CC5CC5)c4)nn23)[C@@H](F)C1` [Compound 268, 1-(cyclopropylmethyl)-N-[3-(7-{[(3S,4R)-3-fluoro-1-methylpiperidin-4-yl]amino}-3-(2,2,2-trifluoroethyl)pyrazolo[1,5-a]pyridin-2-yl)prop-2-yn-1-yl]-1H-pyrazole-4-carboxamide] showed an SC150 of 10 nM.

For `CN1CCC(n2cc(C(=O)NCC#Cc3nn4c(N[C@@H]5CCN(C)C[C@@H]5F)cccc4c3CC(F)(F)F)cn2)CC1` [Compound 012, N-[3-(7-{[(3S,4R)-3-fluoro-1-methylpiperidin-4-yl]amino}-3-(2,2,2-trifluoroethyl)pyrazolo[1,5-a]pyridin-2-yl)prop-2-yn-1-yl]-1-(1-methylpiperidin-4-yl)-1H-pyrazole-4-carboxamide], the SC150 was 4 nM.

In turn, `CN1CC[C@@H](Nc2cccc3c(CC(F)(F)F)c(C#CCNC(=O)c4cnn(C5CCCC5)c4)nn23)[C@@H](F)C1` [Compound 007, 1-cyclopentyl-N-[3-(7-{[(3S,4R)-3-fluoro-1-methylpiperidin-4-yl]amino}-3-(2,2,2-trifluoroethyl)pyrazolo[1,5-a]pyridin-2-yl)prop-2-yn-1-yl]-1H-pyrazole-4-carboxamide] returned an SC150 of 11 nM.

With `CN1CC[C@@H](Nc2cccc3c(CC(F)(F)F)c(C#CCNC(=O)c4cnn(C5CCC5)c4)nn23)[C@@H](F)C1` [Compound 006, 1-cyclobutyl-N-[3-(7-{[(3S,4R)-3-fluoro-1-methylpiperidin-4-yl]amino}-3-(2,2,2-trifluoroethyl)pyrazolo[1,5-a]pyridin-2-yl)prop-2-yn-1-yl]-1H-pyrazole-4-carboxamide], the SC150 was 11 nM.

Consider `CN1CC[C@@H](Nc2cccc3c(CC(F)(F)F)c(C#CCNC(=O)c4cnn(C)c4F)nn23)[C@@H](F)C1` [Compound 327, 5-fluoro-N-[3-(7-{[(3S,4R)-3-fluoro-1-methylpiperidin-4-yl]amino}-3-(2,2,2-trifluoroethyl)pyrazolo[1,5-a]pyridin-2-yl)prop-2-yn-1-yl]-1-methyl-1H-pyrazole-4-carboxamide], for which the SC150 came out at 27 nM.
